Results published in PMC11110238, “Synthesis of novel carbazole hydrazine-carbothioamide scaffold as potent antioxidant, anticancer and antimicrobial agents” (BMC Chemistry, 2024).
Converted amounts (≈) assume the structure as drawn. Like-named read-outs stand apart in the source and are kept apart here. Marks after values point to notes of the source that are not given here.

Key:
MCF-7 cell line = assay: MTT cell viability, MCF-7 cancer cell line; type: cell-based; details: for IC50: Homo sapiens, MCF7, MTT, 48 h, read-out: IC50 values Carbazole Derivatives Effect on MCF-7 Cell Line
Protocol: MCF-7 cancer cell lines were cultured at Dulbecco’s Modified Eagle Medium High Glucose (DMEM) (EuroClone, Via Figino, Italy); fetal bovine serum (FBS) and MTT (3-(4,5-Dimethylthiazol-2-yl)-2,5-Diphenyl Tetrazolium Bromide) were provided by Sigma-Aldrich (Darmstadt, Germany); ApopNexin Annexin-V-FITC with PI Apoptosis Kit was obtained from Merck (Darmstadt, Germany); Total RNA Isolation Kit was provided by Analytic Jena (Jena, Germany), SensiFast cDNA Synthesis Kit was provided by Meridian Bioscience (Cincinati, USA), SybrGreen Master Mix was obtained from EuroClone (Via Figino, Italy).
(§1) Cells (MCF-7 and L929) were incubated in 75 cm^2 sterile flasks with 10% FBS, 100 U/mL penicillin, and 100 µg/mL streptomycin. The cells were grown at 37 ^○C in 5% CO2, and MTT was used to screen the viability of the cells. Cells were seeded at a density of 10^4 cells per well. The cells were then cultured for 24 h in 100 µl of DMEM complete medium. After pretreatment with different concentrations of the compounds for 48 h, 10 µl of 5 mg/mL MTT solution was added to each well and incubated for 4 h at 37 ^○C, and 100 µl of DMSO was used in each well to dissolve the blue formazan crystals. Then, the absorbance was measured at 570 nm. The cell viability percentages of compound 4o against MCF-7 cancer cell lines and L929 normal cell lines were presented in Fig. 2 in comparison with doxorubicin anticancer agent.

[1] = DPPH radical scavenging assay; type: biochemical; details: 30 min, 517 nm
Protocol: To estimate the Carbazole derivatives' antioxidant potential, a solution of each compound (1 mM/mL) in methanol was serially diluted with methanol to obtain a concentration of 1, 2, 5, 10, 20, 50, and 100 µM/mL. Then, DPPH (2,2-diphenyl-1-picrylhydrazyl) reagent (Sigma, USA) was dissolved in 0.002% w/v methanol and mixed with the previously prepared working concentrations in a 1:1 ratio. The same procedures were repeated for Trolox (Sigma-Aldrich, Denmark), which was used as a positive control. All of the solutions were kept in the dark chamber for 30 min at an ordinary temperature. Then, their absorbance values were measured at a wavelength of 517 nm utilizing a UV–visible spectrophotometer. The DPPH inhibition potentials by Carbazole derivatives and Trolox were determined employing the following equation: DPPH inhibition(\%)=abs(blank)-abs(sample)/abs(blank)∗100\% where absblank is the blank absorbance and abssample is the absorbance of the samples [58]. The antioxidant half-maximal inhibitory concentration (IC50) of the synthesized carbazole derivatives and Trolox were assessed by using an online tool “Quest Graph™ IC50 Calculator.” AAT Bioquest, Inc., 25 May. 2023, https://www.aatbio.com/tools/ic50-calculator.

L929 normal cell lines = assay: MTT cell viability, L929 normal cell line; type: cell-based; details: Mus musculus, 48 h
Protocol: as §1

MCF-7 cells = assay: Annexin-V-FITC/PI apoptosis assay by flow cytometry; type: cell-based; details: MCF-7, sum of pre-apoptotic, post-apoptotic and necrosis
Protocol: FITC Annexin-V apoptosis detection kit with PI, ApopNexinTM FITC (APT750, Merk, Germany) was used for apoptosis assay. MCF-7 cells were seeded into a 6-well plate (1 × 10^6 cells per well). Then, the cells were incubated with the compounds at the cytotoxic concentration by employing a cell viability assay. Apoptotic cells were cultured with the compounds, the medium was removed after incubation, and the cells were washed twice with 5 mL of pre-chilled phosphate-buffered saline. Cells washed with PBS were lifted with Trypsin–EDTA and centrifuged at 400 rpm for 5 min. The resulting cells were each treated with 1 mL of cold 1-X Binding Buffer (Sigma Aldrich, USA). Then, 200 μL of the mixture was taken and placed in a flow cytometry tube, and the other part containing cells was kept on ice. First, 3 µl of ApopNexinTM FITC and 2 µl of 100X propidium iodide (PI) (P4170, Sigma Aldrich, USA) were added to the solution taken into the sample tube and mixed. The resulting mixture was incubated for 15 min in the dark at room temperature. At the end of the incubation, the samples were measured in flow cytometry (Beckman Coulter Cytoflex) and data were obtained.

Staphylococcus aureus = assay: MIC and MBC test, S. aureus; type: cell-based
Protocol: (§2) Using Muller Hinton agar medium, the antibacterial activity was evaluated by using 24 h cultures of Escherichia coli, Staphylococcus aureus, and Candida albicans. E. coli and S. aureus were incubated in 1% Mueller Hinton Broth (MHB) liquid medium at 37 °C for 24 h; C. albicans was incubated in Sabouraud Dextrose Broth (SDB) at 30 °C for 48 h. MIC (Minimum Inhibitory Concentration) and MBC (Minimum Bactericidal Concentration) tests were performed to determine antimicrobial activity. This stage was carried out in a sterile cabinet.
(§3) The density of microorganisms in fresh cultures was adjusted according to the MacFarland 0.5 scale. For that, the microorganisms were centrifuged at 4000 rpm for 20 min. The supernatant was poured off, and the pellet was washed with 1 mL of 0.9% NaCl solution (physiological saline). The centrifugation was then repeated. The pellet was dissolved again with saline solution and adjusted to 0.5 MacFarland. In the experiment performed in a sterile 96-well plate, compound 4o was diluted ½ with DMSO to prepare a stock solution. In the first, 100 µl of medium and 100 µl of compound 4o as initial dilutions. Dilution was performed seven times at a ratio of ½. Then, 5 µl of fresh microorganism cultures prepared as MacFarland 0.5 were inoculated. The control group was prepared as 100 µl medium, 100 µl distilled water, and 5 µl microorganisms. The plates were incubated at 37 °C and 30 °C for 24 h.
(§4) After incubation, 10 µl of the sample was taken, dropped onto the respective media, and incubated for 24 h at appropriate temperatures to clearly distinguish the residues left by the compound 4o and the growth of microorganisms. Mueller Hinton Agar (MHA) was used for E. coli and S. aureus, and Potato Dextrose Agar (PDA) was used for C. albicans. After incubation, MIC and MBC values were determined. The first well with a significant decrease in growth was considered as MIC, and the first well with no growth was considered as MBC [59, 60].

Escherichia coli = assay: MIC and MBC test, E. coli; type: cell-based
Protocol: as §2, §3, §4

[2] = design: method as in PMID 37328860; details: previous preliminary work; read-out: Antioxidant IC50 against DPPH; cited from earlier work
Candida albicans = assay: MIC and MBC test, C. albicans; type: cell-based
Protocol: as §2, §3, §4

Which melting point does the source give for `O=C(Cn1c2ccccc2c2ccccc21)NNC(=S)Nc1ccccc1` [Compound 4a, 2-(2-(9H-carbazol-9-yl)acetyl)-N-phenylhydrazine-1-carbothioamide] here?
The melting point was 235 to 237 °C.

What about the IC50 (MCF-7 cell line) of the same compound?
The IC50 was > 20 µM.

What about the IC50 [1] of the same compound?
Its IC50 is 52.1 ± 2.42 µM.

Which results are given for `COc1cccc(NC(=S)NNC(=O)Cn2c3ccccc3c3ccccc32)c1` [Compound 4b, 2-(2-(9H-carbazol-9-yl)acetyl)-N-(3-methoxyphenyl)hydrazine-1-carbothioamide]?
melting point: 218 to 220 °C; IC50 (MCF-7 cell line): > 20 µM; IC50 [1]: 5.15 ± 1.02 µM

Which results are given for `O=C(Cn1c2ccccc2c2ccccc21)NNC(=S)NCCCN1CCOCC1` [Compound 4c, 2-(2-(9H-carbazol-9-yl)acetyl)-N-(3-morpholinopropyl)hydrazine-1-carbothioamide]?
melting point: 189 to 191 °C; IC50 (MCF-7 cell line): > 20 µM; IC50 [1]: 8.99 ± 2.17 µM

Which melting point does the source give for `O=C(Cn1c2ccccc2c2ccccc21)NNC(=S)Nc1cccc2ccccc12` [Compound 4d, 2-(2-(9H-carbazol-9-yl)acetyl)-N-(naphthalen-1-yl)hydrazine-1-carbothioamide] here?
The melting point was 222 to 224 °C.

And the IC50 (MCF-7 cell line)?
The IC50 was > 20 µM.

And the IC50 [1]?
Its IC50 is 29.7 ± 1.77 µM.

Which melting point does the source give for `O=C(Cn1c2ccccc2c2ccccc21)NNC(=S)Nc1ccc([N+](=O)[O-])cc1` [Compound 4e, 2-(2-(9H-carbazol-9-yl)acetyl)-N-(4-nitrophenyl)hydrazine-1-carbothioamide] here?
Its melting point is 235 to 237 °C.

What about the IC50 (MCF-7 cell line) of the same compound?
Its IC50 is > 20 µM.

And the IC50 [1]?
The IC50 was 50.8 ± 1.88 µM.

For `COc1ccc(NC(=S)NNC(=O)Cn2c3ccccc3c3ccccc32)cc1` [Compound 4f, 2-(2-(9H-carbazol-9-yl)acetyl)-N-(4-methoxyphenyl)hydrazine-1-carbothioamide], which melting point is on record?
The melting point was 210 to 212 °C.

What about the IC50 (MCF-7 cell line) of the same compound?
Its IC50 is > 20 µM.

What about the IC50 [1] of the same compound?
The IC50 was 3.41 ± 1.05 µM.

What does the source list for `O=C(Cn1c2ccccc2c2ccccc21)NNC(=S)Nc1ccc(Br)cc1` [Compound 4g, 2-(2-(9H-carbazol-9-yl)acetyl)-N-(4-bromophenyl)hydrazine-1-carbothioamide]?
melting point: 255 to 257 °C; IC50 (MCF-7 cell line): > 20 µM; IC50 [1]: 4.14 ± 0.75 µM

For `O=C(Cn1c2ccccc2c2ccccc21)NNC(=S)Nc1ccc(Cl)cc1` [Compound 4h, 2-(2-(9H-carbazol-9-yl)acetyl)-N-(4-chlorophenyl)hydrazine-1-carbothioamide], which melting point is on record?
Its melting point is 235 to 237 °C.

What about the IC50 (MCF-7 cell line) of the same compound?
Its IC50 is > 20 µM.

And the IC50 [1]?
The IC50 was 0.73 ± 0.54 µM.

With `O=C(Cn1c2ccccc2c2ccccc21)NNC(=S)Nc1ccc(C(F)(F)F)cc1` [Compound 4k, 2-(2-(9H-carbazol-9-yl)acetyl)-N-(4-(trifluoromethyl)phenyl)hydrazine-1-carbothioamide] as the compound, how does the melting point read?
The melting point was 177 to 179 °C.

And the IC50 (MCF-7 cell line)?
The IC50 was > 20 µM.

And the IC50 [1]?
The IC50 was 2.08 ± 0.72 µM.

Which results are given for `O=C(Cn1c2ccccc2c2ccccc21)NNC(=S)NC1CCCCC1` [Compound 4m, 2-(2-(9H-carbazol-9-yl)acetyl)-N-cyclohexylhydrazine-1-carbothioamide]?
melting point: 211 to 213 °C; IC50 (MCF-7 cell line): > 20 µM; IC50 [1]: 2.37 ± 1.7 µM

What does the source list for `Cc1ccc(NC(=S)NNC(=O)Cn2c3ccccc3c3ccccc32)cc1` [Compound 4n, 2-(2-(9H-carbazol-9-yl)acetyl)-N-(p-tolyl)hydrazine-1-carbothioamide]?
melting point: 180 to 182 °C; IC50 (MCF-7 cell line): > 20 µM; IC50 [1]: 1.52 ± 0.58 µM

What does the source list for `O=C(Cn1c2ccccc2c2ccccc21)NNC(=S)NCc1ccccc1` [Compound 4p, 2-(2-(9H-carbazol-9-yl)acetyl)-N-benzylhydrazine-1-carbothioamide]?
melting point: 169 to 171 °C; IC50 (MCF-7 cell line): > 20 µM; IC50 [1]: 10.2 ± 1.85 µM

For `O=C(Cn1c2ccccc2c2ccccc21)NNC(=S)NC1CC2CCC1C2` (stereo not shown) [Compound 4r, 2-(2-(9H-carbazol-9-yl)acetyl)-N-(bicyclo[2.2.1]heptan-2-yl)hydrazine-1-carbothioamide], which melting point is on record?
Its melting point is 199 to 201 °C.

And the IC50 (MCF-7 cell line)?
The IC50 was 4.99 ± 0.42 µM.

And the IC50 [1]?
Its IC50 is 19.9 ± 1.55 µM.

For `O=C(Cn1c2ccccc2c2ccccc21)NNC(=S)NCCc1ccccc1` [Compound 4s, 2-(2-(9H-carbazol-9-yl)acetyl)-N-phenethylhydrazine-1-carbothioamide], which melting point is on record?
Its melting point is 170 to 172 °C.

And the IC50 (MCF-7 cell line)?
The IC50 was > 20 µM.

And the IC50 [1]?
The IC50 was 3.05 ± 1.75 µM.

For `CC(C)NC(=S)NNC(=O)Cn1c2ccccc2c2ccccc21` [Compound 4t, 2-(2-(9H-carbazol-9-yl)acetyl)-N-isopropylhydrazine-1-carbothioamide], which melting point is on record?
The melting point was 186 to 188 °C.

What about the IC50 (MCF-7 cell line) of the same compound?
Its IC50 is > 20 µM.

And the IC50 [1]?
Its IC50 is 15.9 ± 2.07 µM.

Which results are given for `C=CCNC(=S)NNC(=O)Cn1c2ccccc2c2ccccc21` [Compound 4y, 2-(2-(9H-carbazol-9-yl)acetyl)-N-allylhydrazine-1-carbothioamide]?
melting point: 205 to 207 °C; IC50 (MCF-7 cell line): > 20 µM; IC50 [1]: 0.38 ± 0.05 µM

What does the source list for `CNC(=S)NNC(=O)Cn1c2ccccc2c2ccccc21` [Compound 4z, 2-(2-(9H-carbazol-9-yl)acetyl)-N-methylhydrazine-1-carbothioamide]?
melting point: 173 to 175 °C; IC50 (MCF-7 cell line): > 20 µM; IC50 [1]: 21.6 ± 0.87 µM

Which IC50 (MCF-7 cell line) does the source give for `COc1cccc2c1C(=O)c1c(O)c3c(c(O)c1C2=O)C[C@@](O)(C(=O)CO)C[C@@H]3O[C@H]1C[C@H](N)[C@H](O)[C@H](C)O1` [Doxorubicin, reference compound] here?
The IC50 was 5.06 ± 0.21 µM.

What about the “selective index (SI)” value (MCF-7 cell line; L929 vs MCF-7) of the same compound?
The value was 3.82.

And the IC50 (L929 normal cell lines)?
Its IC50 is 19.3 µM.

What about the total dead cells (MCF-7 cells) of the same compound?
Its total dead cells is 14.50%.

For `C[C@H]1c2cccc(O)c2C(=O)C2=C(O)[C@]3(O)C(=O)C(C(N)=O)=C(O)[C@@H](N(C)C)[C@@H]3[C@@H](O)[C@@H]21` [Doxycyline, reference compound], which MBC (Staphylococcus aureus) is on record?
The MBC was 63.0^a µM.

And the MBC (Escherichia coli)?
The MBC was 50.9^a µM.

What about the MIC (Escherichia coli) of the same compound?
The MIC was 5.09^a µM.

Which IC50 [2] does the source give for `COc1ccc(S(=O)(=O)NNC(=O)Cn2c3ccccc3c3ccccc32)cc1` [St.1] here?
The IC50 was 1.05 µM.

For `Cc1c(C)c2c(c(C)c1O)CCC(C)(C(=O)O)O2` (stereo not shown) [Trolox, reference compound], which IC50 [1] is on record?
The IC50 was 7.71 ± 1.47 µM.

For `OC(Cn1cncn1)(Cn1cncn1)c1ccc(F)cc1F` [fluconazole, reference compound], which MBC (Candida albicans) is on record?
The MBC was 16.3 µM (≈ 4.99 µg/mL).
